Measured values reported in patent publication US20250332173A1, “COMPOUNDS AND METHODS FOR MODULATING NUCLEIC ACID SPLICING” (REMIX THERAPEUTICS INC., priority 2021, published 2025).
Like-named read-outs stand apart in the source and are kept apart here.

Assays:
[1] = test system: K562 (human chronic myelogenous leukemia) cells; test: Cell Titer Glo 2.0 cell viability assay; format: cell-based; conditions: Homo sapiens, K562, 72 h, K562 cells, 72 hours, Cell Titer Glo 2.0; read-out: K562 GI50
MYB = test: HiBiT protein abundance assay, MYB HiBiT K562 cell line; format: cell-based, human; conditions: HiBiT K562 cell line, 24 hours, top dose 10 μM; read-out: Effect on protein abundance, MYB (IC50 category)
In short: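 K562 knock-in lines with endogenous HiBiT-tagged target, 10,000 cells/well in IMDM + FBS, treated 24 h at 37° C with 10-point 3-fold dilutions (top 10 μM final; DMSO ≤0.25%). Lytic Nano-Glo HiBiT luminescence normalized to untagged K562 baseline and DMSO controls; IC50 = concentration giving 50% abundance via four-parameter fit.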

HTT mRNA = test: RT-qPCR splicing assay, HTT canonical junction (CJ) and alternative junction (AJ) mRNA; format: cell-based, human; conditions: Homo sapiens; for AC50: increase in HTT alternative junction (AJ) mRNA, read-out: HTT AJ AC50
In short: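 A673 cells (normalized to PPIA) or K562 cells (normalized to GAPDH or GUSB) were treated 24 h at 37 °C with an 11-point 3-fold dilution series, top 10 uM, DMSO ≤0.25%. Cell lysates went to one-step RT-qPCR measuring canonical- and alternative-junction MYB or HTT transcripts.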

[2] = decrease in HTT canonical junction (CJ) mRNA, RT-qPCR, read-out: HTT CJ IC50
[3] = Table 5 panel, canonical junction qPCR, compound concentration having 50% response in CJ decrease, read-out: HTT IC50 (decrease in CJ mRNA levels)

SMILES	GI50 [1] [nM]	IC50 (MYB) [nM]	IC50 (HTT mRNA; [2]) [nM]	AC50 (HTT mRNA; RT-qPCR) [nM]	IC50 (HTT mRNA; [3]) [nM]
Cc1cn2nc(-c3ccc4c(c3)CCN(C3CCN(C)C3)C4=O)cc(C)c2n1 (centres unmarked) [Compound 282]	> 10000	1000 to 10000	> 10000	> 10000	> 10000
Cc1cn2nc(-c3ccc4c(=O)n(C5CCCNCC5)ncc4c3)cc(C)c2n1 (centres unmarked) [Compound 283]	100 to 1000	100 to 1000	100 to 1000	100 to 1000	100 to 1000
O=c1c2ccc(-c3cn[nH]c3)cc2ncn1C1CCNCC1 [Compound 284]	> 10000	1000 to 10000	> 10000	> 10000	> 10000
Cc1nc2c(F)cc(-c3ccc4c(=O)n(C5CCNCC5)cnc4c3)cc2s1 [Compound 285]	100 to 1000	100 to 1000	> 10000	1000 to 10000	1000 to 10000
Cc1cn2cc(-c3ccc4c(=O)n(C5CCNCC5)cnc4c3)nc2c(C)n1 [Compound 286]	100 to 1000	100 to 1000	1000 to 10000	1000 to 10000	1000 to 10000
Cc1cn2nc(-c3ccc4c(=O)n(C5CCNCC5)cnc4c3)nc2c(C)n1 [Compound 287, 7-{6,8-dimethyl-[1,2,4]triazolo[1,5-a]pyrazin-2-yl}-3-(piperidin-4-yl)quinazolin-4-one]	100 to 1000	100 to 1000	100 to 1000	100 to 1000	100 to 1000
Cc1cn2nc(-c3ccc4c(=O)n(C5CCN(C)CC5)cnc4c3)nc2c(C)n1 [Compound 288, 7-{6,8-dimethyl-[1,2,4]triazolo[1,5-a]pyrazin-2-yl}1-3-(1-methylpiperidin-4-yl)quinazolin-4-one]	1000 to 10000	1000 to 10000	1000 to 10000	1000 to 10000	1000 to 10000
Cc1cn2cc(-c3ccc4c(=O)n(C5CCNCC5)cnc4c3)cc(Cl)c2n1 [Compound 291]	< 100	100 to 1000	100 to 1000	100 to 1000	100 to 1000
Cc1cn2cc(-c3ccc4c(=O)n(C5CCNCC5)cnc4c3)cc(C)c2n1 [Compound 292]	100 to 1000	100 to 1000	100 to 1000	100 to 1000	100 to 1000
Cc1cn2cc(-c3ccc4c(=O)n([C@@H]5CCN[C@@H](C)C5)cnc4c3)cc(F)c2n1 [Compound 293]	100 to 1000	100 to 1000	1000 to 10000	100 to 1000	100 to 1000
Cc1cn2cc(-c3ccc4c(=O)n(C5CCN[C@@H](C)C5)cnc4c3)cc(F)c2n1 (some centres unmarked) [Compound 294]	100 to 1000	100 to 1000	1000 to 10000	1000 to 10000	1000 to 10000
Cc1cn2cc(-c3ccc4c(=O)n([C@@H]5CCN[C@H](C)C5)cnc4c3)cc(F)c2n1 [Compound 295]	100 to 1000	1000 to 10000	1000 to 10000	1000 to 10000	1000 to 10000
Cc1cn2cc(-c3ccc4c(=O)n([C@H]5CCN[C@H](C)C5)cnc4c3)cc(F)c2n1 [Compound 296]	100 to 1000	100 to 1000	100 to 1000	100 to 1000	100 to 1000
Cc1cn2cc(-c3ccc4c(=O)n(C5CCNCC5)cnc4c3)ncc2n1 [Compound 297]	1000 to 10000	100 to 1000	1000 to 10000	1000 to 10000	1000 to 10000
Cc1cn2nc(-c3ccc4c(=O)n(C5CCNCC5)cnc4c3)cc2c(C)n1 [Compound 298]	1000 to 10000	100 to 1000	100 to 1000	100 to 1000	100 to 1000
CN1CCC(n2cnc3cc(-c4cn[nH]c4)ccc3c2=O)CC1 [Compound 299]	> 10000	> 10000	> 10000	> 10000	> 10000

SMILES	GI50 [1] [nM]	IC50 (MYB) [nM]	IC50 (HTT mRNA; [2]) [nM]	AC50 (HTT mRNA; RT-qPCR) [nM]	IC50 (HTT mRNA; [3]) [nM]
Cc1nc2c(F)cc(-c3ccc4c(=O)n(C5CCN(C)CC5)cnc4c3)cc2o1 [Compound 300]	1000 to 10000	100 to 1000	1000 to 10000	100 to 1000	100 to 1000
Cc1nc2c(F)cc(-c3ccc4c(=O)n(C5CCN(C)CC5)cnc4c3)cc2s1 [Compound 301]	1000 to 10000	1000 to 10000	1000 to 10000	1000 to 10000	1000 to 10000
Cc1cn2cc(-c3ccc4c(=O)n(C5CCN(C)CC5)cnc4c3)nc2c(C)n1 [Compound 302]	1000 to 10000	1000 to 10000	1000 to 10000	1000 to 10000	1000 to 10000
Cc1cn2nc(-c3ccc4c(=O)n(C5CCN(C)CC5)cnc4c3)cc2c(C)n1 [Compound 303]	1000 to 10000	1000 to 10000	1000 to 10000	1000 to 10000	1000 to 10000
CC[C@@H]1C[C@H](n2ncc3cc(-c4cc(C)c5nc(C)cn5n4)ccc3c2=O)CCN1 [Compound 304]	100 to 1000	100 to 1000	1000 to 10000	1000 to 10000	100 to 1000
Cc1cn2cc(-c3ccc4c(=O)n(C5CCNCC5)cnc4c3)cc(C(F)(F)F)c2n1 [Compound 306]	100 to 1000	1000 to 10000	1000 to 10000	1000 to 10000	1000 to 10000
Cc1cn2cc(-c3ccc4c(=O)n(C5CCN(C)CC5)cnc4c3)ncc2n1 [Compound 308]	1000 to 10000	1000 to 10000	1000 to 10000	1000 to 10000	1000 to 10000
Cc1cn2nc(-c3ccc4c(=O)n(C5CCN(C)CC5)ccc4c3)cc(C)c2n1 [Compound 310]	1000 to 10000	100 to 1000	100 to 1000	100 to 1000	100 to 1000
Cc1cc(-c2cnc3c(=O)n(C4CCNCC4)cnc3c2)cc2cn(C)nc12 [Compound 311]	1000 to 10000	1000 to 10000	1000 to 10000	1000 to 10000	1000 to 10000
Cc1cn2nc(-c3cc(F)c4c(=O)n(C5CCNC6(CC6)C5)ncc4c3)cc(C)c2n1 (centres unmarked) [Compound 312]	100 to 1000	< 100	< 100	< 100	< 100
Cn1cc2cc(-c3cc(F)c4c(=O)n(C5CCNCC5)cnc4c3)cc(F)c2n1 [Compound 314]	1000 to 10000	1000 to 10000	1000 to 10000	1000 to 10000	1000 to 10000
Cn1cc2cc(-c3cc(F)c4c(=O)n(C5CCNCC5)cnc4c3)c(F)cc2n1 [Compound 315]	1000 to 10000	100 to 1000	1000 to 10000	1000 to 10000	1000 to 10000
Cn1cc2cc(-c3cc(F)c4c(=O)n(C5CCNCC5)cnc4c3)cc(C#N)c2n1 [Compound 316]	100 to 1000	< 100	100 to 1000	100 to 1000	100 to 1000
Cc1cn2cc(-c3cc(F)c4c(=O)n(C5CCNCC5)cnc4c3)cc(C)c2n1 [Compound 317]	100 to 1000	< 100	100 to 1000	100 to 1000	100 to 1000
Cc1cn2nc(-c3cc(F)c4c(=O)n(C5CCNCC5)cnc4c3)cc2c(C)n1 [Compound 318]	100 to 1000	< 100	< 100	< 100	< 100
